This is an account of results in patent US10980781B2, “6-amino-2,4-dihydropyrano [2,3-c] pyrazoles and methods of use” (Purdue Research Foundation, priority 2017, dated 2021).

The target in this test is USP7 (Homo sapiens (Human), UniProt Q93009). Put plainly: USP7 inhibition assay with Ub-Rho 110 substrate (fluorescence progress curves). Format: biochemical. To be noted: for IC50: 11 compound concentrations, two-fold serial dilutions, 1 nM USP7, 200 nM Ub-Rho 110. As to the method:
Each assay was measured in triplicate. […] All reactions contained a final concentration of 3% DMSO. […] The percent inhibition was calculated using Equation (1).
The assay design was identical to as described above. The percent inhibition was calculated using Equation 1 and fit to Equation 2 by use of the Enzyme Kinetics Module of Sigma Plot (v13:Systat Software Inc.), to determine the IC50 value.

Where [1] appears, read: 100 μM compound, 1 nM USP7, 200 nM Ub-Rho 110, 3% DMSO, triplicate.

Molecules are shown by their SMILES.

One may read the IC50 as the concentration needed to halve the response being measured. Low readings indicate inhibition by little substance, high ones a need for much substance. The inhibition is the drop in the measured response relative to a control, in per cent. Lower therefore signals a weak effect.

Sequence of USP7 (Q93009 whole entry): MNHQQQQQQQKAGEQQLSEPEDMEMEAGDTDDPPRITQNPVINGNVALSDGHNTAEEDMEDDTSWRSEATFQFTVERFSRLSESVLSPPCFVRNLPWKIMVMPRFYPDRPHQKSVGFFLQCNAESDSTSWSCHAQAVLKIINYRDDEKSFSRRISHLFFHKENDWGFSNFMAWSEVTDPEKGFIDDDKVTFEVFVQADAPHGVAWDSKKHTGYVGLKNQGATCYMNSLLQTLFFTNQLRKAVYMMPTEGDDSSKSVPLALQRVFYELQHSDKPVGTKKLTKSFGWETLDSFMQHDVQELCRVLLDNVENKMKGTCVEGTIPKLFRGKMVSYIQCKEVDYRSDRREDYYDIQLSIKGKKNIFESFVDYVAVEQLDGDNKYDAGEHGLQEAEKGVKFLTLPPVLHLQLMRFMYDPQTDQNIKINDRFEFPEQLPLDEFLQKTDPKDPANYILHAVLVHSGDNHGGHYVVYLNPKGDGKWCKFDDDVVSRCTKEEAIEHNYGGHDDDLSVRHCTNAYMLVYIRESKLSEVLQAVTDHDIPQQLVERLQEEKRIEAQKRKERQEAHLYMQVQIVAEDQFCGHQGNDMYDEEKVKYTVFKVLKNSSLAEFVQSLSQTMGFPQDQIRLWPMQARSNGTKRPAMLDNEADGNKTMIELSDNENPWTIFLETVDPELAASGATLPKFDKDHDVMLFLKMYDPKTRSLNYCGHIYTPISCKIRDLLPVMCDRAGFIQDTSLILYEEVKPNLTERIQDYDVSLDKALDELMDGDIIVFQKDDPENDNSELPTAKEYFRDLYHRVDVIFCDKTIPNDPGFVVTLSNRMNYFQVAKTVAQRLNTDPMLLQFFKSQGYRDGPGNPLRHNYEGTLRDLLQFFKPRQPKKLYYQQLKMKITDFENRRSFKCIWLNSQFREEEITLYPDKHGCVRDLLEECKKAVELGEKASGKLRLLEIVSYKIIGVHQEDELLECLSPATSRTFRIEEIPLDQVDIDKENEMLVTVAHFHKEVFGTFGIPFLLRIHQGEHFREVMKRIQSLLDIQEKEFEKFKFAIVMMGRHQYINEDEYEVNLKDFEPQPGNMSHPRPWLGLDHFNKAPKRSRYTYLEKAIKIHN

On to `N#CC1=C(N)Oc2n[nH]c(-c3cccs3)c2C1c1ccc(O)c(C(F)(F)F)c1` (racemic) [Compound 6v, 6-Amino-4-(4-hydroxy-3-(trifluoromethyl)phenyl)-3-(thiophen-2-yl)-2,4-dihydropyrano[2,3-c]pyrazole-5-carbonitrile], for which the IC50 amounted to 0.75 ± 0.06 µM. Besides, the “% inhibition @100 μM” value under setting [1] turned out to be 93 ± 4%.

Take `C=CCN1CCc2ccc(C3C(C#N)=C(N)Oc4n[nH]c(-c5cccs5)c43)cc21` (stereo not shown) [Compound 6i, 4-(1-Allylindolin-6-yl)-6-amino-3-(thiophen-2-yl)-2,4-dihydropyrano[2,3-c]pyrazole-5-carbonitrile]: under setting [1], testing at 100 µM gave an inhibition of 63 ± 1%.

For the molecule `N#CC1=C(N)Oc2n[nH]c(-c3cccs3)c2C1c1ccc(O)cc1` (stereo not shown) [Compound 6d, 6-Amino-4-(4-hydroxyphenyl)-3-(thiophen-2-yl)-2,4-dihydropyrano [2,3-c]pyrazole-5-carbonitrile], under setting [1], the inhibition at 100 µM was 0%.

In the case of `N#CC1=C(N)Oc2n[nH]c(-c3cccs3)c2C1c1ccc2c(c1)-c1ccccc1C2` (stereo not shown) [Compound 6h, 6-amino-4-(9H-fluoren-3-yl)-3-(thiophen-2-yl)-2,4-dihydropyrano [2,3-c]pyrazole-5-carbonitrile], the inhibition at 100 µM under setting [1] turned out to be 38 ± 6%.

Turning to `COc1ccc(C2C(C#N)=C(N)Oc3n[nH]c(-c4ccc(Cl)cc4)c32)cc1Br` (racemic) [Compound 7h, 6-Amino-4-(3-bromo-4-methoxyphenyl)-3-(4-chlorophenyl)-2,4-dihydropyrano [2,3-c]pyrazole-5-carbonitrile], half-maximal inhibition (IC50) was put at 7.5 ± 0.9 µM. The inhibition at 100 µM under setting [1] is 66 ± 3%.
